Results published in the supplement of paper PMC10307832.

What was measured:
Assay in all cases: relative viability (nuclei count vs DMSO), 5 days (fraction); higher = more cells survive
[1] = compound: C1CSC2=C(C(=O)N1)SC3=C2C=C(C=C3)O [kb NB 142-70] + CS(=O)(=O)CCNCc1ccc(-c2ccc3ncnc(Nc4ccc(OCc5cccc(F)c5)c(Cl)c4)c3c2)o1 [Lapatinib] (partner 2 µM)
Summary of the method: (§1)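 Lung cancer cell lines in 1536-well plates were dosed by pin tool the day after seeding, either with one drug alone or with a fixed anchor-drug dose plus five library-drug doses (not always all listed) in √10 steps. After 5 days, cells were fixed and their nuclei stained in one step (final 0.05% Triton X-100, 1% formaldehyde, 1 ug/ml Hoechst), then counted on 4× images. Relative viability is the nuclei count in treated wells divided by that in vehicle wells. Values are medians of duplicate plates.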

[2] = compound: NCC(=O)Nc1ccc(-n2nc(C(F)(F)F)cc2-c2ccc3c(ccc4ccccc43)c2)cc1 + CCNC(=O)c1noc(-c2cc(C(C)C)c(O)cc2O)c1-c1ccc(CN2CCOCC2)cc1 [Luminespib] (partner 0.01 µM)
Summary of the method: as §1

[3] = compound: NCC(=O)Nc1ccc(-n2nc(C(F)(F)F)cc2-c2ccc3c(ccc4ccccc43)c2)cc1 + Cc1nc(Nc2ncc(C(=O)Nc3c(C)cccc3Cl)s2)cc(N2CCN(CCO)CC2)n1 [Dasatinib] (partner 0.075 µM)
Summary of the method: as §1

[4] = compound: NCC(=O)Nc1ccc(-n2nc(C(F)(F)F)cc2-c2ccc3c(ccc4ccccc43)c2)cc1 + NC(=O)Nc1cc(-c2cccc(F)c2)sc1C(=O)N[C@H]1CCCNC1 [AZD7762] (partner 0.2 µM)
Summary of the method: as §1

Cell Line | relative viability ([1]; first compound 0.1 µM) | relative viability ([1]; first compound 1 µM) | relative viability ([1]; first compound 3.162 µM) | relative viability ([2]; first compound 0.02 µM) | relative viability ([2]; first compound 0.06325 µM) | relative viability ([2]; first compound 0.2 µM) | relative viability ([2]; first compound 0.6325 µM) | relative viability ([2]; first compound 2 µM) | relative viability ([3]; first compound 0.02 µM) | relative viability ([3]; first compound 0.06325 µM) | relative viability ([3]; first compound 0.2 µM) | relative viability ([3]; first compound 0.6325 µM) | relative viability ([3]; first compound 2 µM) | relative viability ([4]; first compound 0.02 µM) | relative viability ([4]; first compound 0.06325 µM) | relative viability ([4]; first compound 0.2 µM) | relative viability ([4]; first compound 0.6325 µM) | relative viability ([4]; first compound 2 µM)
NCI-H1437 | 0.728 | 0.78 | 0.85 | 1.11 | 0.991 | 1.13 | 1.12 | 1.05 | 0.309 | 0.359 | 0.265 | 0.506 | 0.526 | 0.974 | 1.21 | 1.13 | 1.1 | 1.11
NCI-H1651 | 0.902 | 0.789 | 0.471 | 0.8 | 0.965 | 0.872 | 0.81 | 0.861 | 0.319 | 0.447 | 0.346 | 0.494 | 0.462 | 0.447 | 0.433 | 0.513 | 0.47 | 0.423
NCI-H1666 | 0.637 | 0.598 | 0.335 | 0.982 | 1.06 | 0.925 | 1.07 | 0.93 | 0.814 | 0.793 | 0.881 | 0.814 | 0.744 | 0.75 | 0.844 | 0.919 | 0.868 | 0.91
NCI-H1734 | 1.06 | 0.895 | 0.523 | 0.201 | 0.213 | 0.181 | 0.24 | 0.187 | 0.468 | 0.472 | 0.513 | 0.466 | 0.438 | 0.52 | 0.556 | 0.565 | 0.515 | 0.611
NCI-H1755 | 1.02 | 1.04 | 1.02 | 0.449 | 0.621 | 0.305 | 0.426 | 0.541 | 0.435 | 0.44 | 0.431 | 0.45 | 0.414 | 0.448 | 0.569 | 0.448 | 0.394 | 0.449
NCI-H1792 | 0.87 | 0.85 | 1.03 | 0.337 | 0.583 | 0.552 | 0.585 | 0.484 | 0.605 |  | 0.915 | 0.836 | 0.726 | 0.725 | 0.772 | 0.759 | 0.822 | 0.682
NCI-H1793 | 0.57 | 0.749 | 0.861 | 0.398 | 0.155 | 0.18 | 0.192 | 0.213 | 0.352 | 0.431 | 0.391 | 0.404 | 0.411 | 0.434 | 0.568 | 0.573 | 0.447 | 0.742
NCI-H1915 | 1.05 | 1 | 0.845 | 0.817 | 0.756 | 0.779 | 0.815 | 0.769 | 0.26 | 0.338 | 0.341 | 0.318 | 0.363 | 0.644 | 0.729 | 0.642 | 0.703 | 0.754
NCI-H1944 | 0.865 | 0.827 | 0.936 | 0.667 | 0.71 | 0.787 | 0.715 | 0.75 | 0.199 | 0.221 | 0.208 | 0.211 | 0.24 | 0.476 | 0.484 | 0.551 | 0.47 | 0.559
NCI-H1975 | 0.894 | 0.881 | 0.433 | 0.125 | 0.29 | 0.236 | 0.278 | 0.247 | 0.318 | 0.387 | 0.443 | 0.38 | 0.387 | 0.732 | 0.699 | 0.777 | 0.691 | 0.708
NCI-H1993 | 0.71 | 0.765 | 0.856 | 0.887 | 0.88 | 0.901 | 0.784 | 0.957 | 0.569 | 0.696 | 0.526 | 0.688 | 0.631 | 0.957 | 0.933 | 0.706 | 0.839 | 0.784
NCI-H2085 | 0.764 | 0.727 | 0.48 | 0.537 | 0.473 | 0.466 | 0.445 | 0.472 | 0.291 | 0.282 | 0.292 | 0.263 | 0.341 | 0.943 | 1.03 | 1.04 | 1.06 | 1.04
NCI-H2087 | 0.935 | 1.22 | 0.897 | 0.151 | 0.19 | 0.214 | 0.138 | 0.196 | 0.862 | 0.854 | 0.928 | 0.762 | 0.904 | 1.29 | 1.24 | 1.31 | 1.36 | 1.23
NCI-H2126 | 0.818 | 0.739 | 0.783 | 0.904 | 0.981 | 0.871 | 0.942 | 0.943 | 0.573 | 0.664 | 0.667 | 0.702 | 0.602 | 0.969 | 1.12 | 1.02 | 1.01 | 1.01
NCI-H2170 | 0.295 | 0.305 | 0.258 | 0.738 | 0.7 | 0.552 | 0.75 | 0.616 | 0.522 | 0.695 | 0.494 | 0.581 | 0.694 | 0.87 | 0.907 | 0.94 | 0.911 | 0.86
